Values quoted from earlier work, collected in patent publication US20240299430A1, “METHODS AND COMPOSITIONS FOR TREATING LONG COVID-19” (Intrinsic Medicine, Inc., priority 2021, published 2024).

What was measured:
[1] = tested on: mouse models of rheumatoid arthritis; conditions: administered orally, LPS challenge
[2] = tested on: murine and human derived macrophages stimulated with LPS and various pro-inflammatory cytokines; conditions: in vitro
[3] = tested on: PDL1, COX2 and select chemokines, such as CCL2 (MCP1) and CCL5

Row | Compound | clinical assessments of disease [1] | effect on IL-1β, IL-2, IL-4, IL-6, IL-12, IFN γ or TNF-α [2] | extent of cytokine reduction, 3′-SL compared with 6′SL [2] | effect on PDL1, COX2 and chemokines CCL2 (MCP1) and CCL5 [3]
1 | sialyllactose | benefit in clinical assessments of disease |  |  | 
2 | CC(=O)N[C@H]1C([C@H](O)[C@H](O)CO)O[C@@](O[C@@H]2C(O)[C@H](O[C@@H]3C(CO)O[C@@H](O)C(O)[C@H]3O)OC(CO)[C@@H]2O)(C(=O)O)C[C@H]1O (some centres unmarked) [3′SL, 3′-sialyllactose] |  | reductions | more significant reductions | reduce
3 | CC(=O)N[C@H]1[C@H]([C@H](O)[C@H](O)CO)O[C@@](OC[C@H]2O[C@@H](O[C@H]3[C@H](O)[C@@H](O)[C@H](O)O[C@@H]3CO)[C@H](O)[C@@H](O)[C@H]2O)(C(=O)O)C[C@@H]1O [6′SL, 6′-sialyllactose] |  | reductions |  | 
